Measured values reported in patent publication US9000025B2, “Autotaxin inhibitors and uses thereof” (Amira Pharmaceuticals, Inc., priority 2010, dated 2015).

Target: T1, autotaxin (ATX) (Homo sapiens, UniProt Q13822)
T1 construct: conditioned medium from the human melanoma cell line, MDA-MB-4355, which endogenously expresses autotaxin; host or cells: MDA-MB-435S human melanoma cells; serum-free conditioned medium, concentrated 20-fold
Test: Native Autotaxin Choline Release Assay
Assay type: biochemical
Details: autotaxin in conditioned medium from human melanoma cell line; choline released from LPC; read-out: MDA-MB-435S Assay IC50
Protocol: ATX activity is determined by measuring the amount of choline realeased from the substrate, lyosphophatidylcholine (LPC). […] After reaching confluency, the cells are washed twice with phosphate-buffered saline (PBS) then cultured for 48 hours in phenol-red free, serum-free DMEM containing sodium pyruvate. […] 100 μl of a color mix which contains 4.5 mM 4-aminoantipyrine, 2.7 mM N-ethyl-N-(2-hydroxy-3-sulfopropyl)-m-toluidine, 21 units/ml horseradish peroxidase and 3 units/ml choline oxidase in 50 mM Tris, pH 8, 4.5 mM MgCl2 is added and the incubation continued at 37° C. for 10 minutes before reading the absorbance at 555 nm. The concentration of released choline in the sample is determined from a choline standard curve and is equal to the concentration of LPA produced.

Row | Structure (SMILES) | IC50 [nM]
1 | CCn1cc(-n2c(C)c(Sc3cc(F)cc(C(=O)O)c3)c3ccc(Cl)cc32)cn1 [Compound 1-129, 3-[6-Chloro-1-(1-ethyl-1H-pyrazol-4-yl)-2-methyl-1H-indol-3-ylsulfanyl]-5-fluoro-benzoic acid] | < 300
2 | Cc1ccc(-n2cc(-n3c(C)c(Sc4cccc(C(=O)O)c4)c4ccc(Cl)cc43)cn2)cc1 [Compound 1-130, 3-[6-Chloro-2-methyl-1-(1-p-tolyl-1H-pyrazol-4-yl)-1H-indol-3-ylsulfanyl]-benzoic acid] | < 300
3 | CCCn1cc(-n2c(C)c(Sc3cccc(C(=O)O)c3F)c3ccc(Cl)cc32)cn1 [Compound 1-131, 3-[6-Chloro-2-methyl-1-(1-propyl-1H-pyrazol-4-yl)-1H-indol-3-ylsulfanyl]-2-fluoro-benzoic acid] | < 300
4 | CCn1cc(-n2c(C)c(Sc3ccc(C)c(C(=O)O)c3)c3ccc(Cl)cc32)cn1 [Compound 1-132, 5-[6-Chloro-1-(1-ethyl-1H-pyrazol-4-yl)-2-methyl-1H-indol-3-ylsulfanyl]-2-methyl-benzoic acid] | < 300
5 | Cc1[nH]c2cc(Cl)ccc2c1Sc1cccc(B(O)O)c1 [Compound 2-1, 3-(6-Chloro-2-methyl-1H-indol-3-ylsulfanyl)-phenylboronic acid] | > 1000
6 | COC(=O)c1cccc(Oc2c(C)n(Cc3ccccc3)c3cc(Cl)ccc23)c1 [Compound 2-3, 3-(1-Benzyl-6-chloro-2-methyl-1H-indol-3-yloxy)-benzoic acid methyl ester] | > 1000
7 | Cc1c(Oc2cccc(CO)c2)c2ccc(Cl)cc2n1Cc1ccccc1 [Compound 2-4, [3-(1-Benzyl-6-chloro-2-methyl-1H-indol-3-yloxy)-phenyl]-methanol] | > 1000
8 | Cc1c(Oc2cccc(CC#N)c2)c2ccc(Cl)cc2n1Cc1ccccc1 [Compound 2-5, [3-(1-Benzyl-6-chloro-2-methyl-1H-indol-3-yloxy)-phenyl]-acetonitrile] | > 1000
9 | Cc1c(Oc2cccc(Cc3nn[nH]n3)c2)c2ccc(Cl)cc2n1Cc1ccccc1 [Compound 2-6, 1-Benzyl-6-chloro-2-methyl-3-[3-(2H-tetrazol-5-ylmethyl)-phenoxy]-1H-indole] | > 1000
10 | Cc1c(Sc2cccc(/C=C/C(=O)O)c2)c2ccc(Cl)cc2n1Cc1ccccc1 [Compound 2-7, (E)-3-[3-(1-Benzyl-6-chloro-2-methyl-1H-indol-3-ylsulfanyl)-phenyl]-acrylic acid] | > 1000
11 | Cc1c(Sc2cccc(Cc3nn[nH]n3)c2)c2ccc(Cl)cc2n1Cc1ccccc1 [Compound 2-8, 1-Benzyl-6-chloro-2-methyl-3-[3-(2H-tetrazol-5-ylmethyl)-phenylsulfanyl]-1H-indole] | > 1000
12 | Cc1c(Sc2cccc(-c3nn[nH]n3)c2)c2ccc(Cl)cc2n1Cc1ccccc1 [Compound 2-9, 1-Benzyl-6-chloro-2-methyl-3-[3-(2H-tetrazol-5-yl)-phenylsulfanyl]-1H-indole] | > 1000
13 | Cc1c(Sc2cccc(C(=O)NCC[N+](C)(C)C)c2)c2ccc(Br)cc2n1Cc1ccccc1 [Compound 2-10, {2-[3-(1-Benzyl-6-bromo-2-methyl-1H-indol-3-ylsulfanyl)-benzoylamino]-ethyl}-trimethyl-ammonium] | > 1000
14 | Cc1c(Sc2cccc(C(=O)NCCN(C)C)c2)c2ccc(Br)cc2n1Cc1ccccc1 [Compound 2-11, 3-(1-Benzyl-6-bromo-2-methyl-1H-indol-3-ylsulfanyl)-N-(2-dimethylamino-ethyl)-benzamide] | > 1000
15 | Cc1c(Sc2cccc(B(O)O)c2)c2ccc(Cl)cc2n1-c1cccnc1 [Compound 2-12, 3-(6-Chloro-2-methyl-1-pyridin-3-yl-1H-indol-3-ylsulfanyl)-phenylboronic acid] | > 1000
16 | Cc1[nH]c2cc(Cl)ccc2c1Sc1ccccc1CC(=O)O [Compound 3-1, [2-(6-Chloro-2-methyl-1H-indol-3-ylsulfanyl)-phenyl]-acetic acid] | > 1000
17 | Cc1[nH]c2cc(Cl)ccc2c1Sc1ccc(CC(=O)O)cc1 [Compound 3-2, [4-(6-Chloro-2-methyl-1H-indol-3-ylsulfanyl)-phenyl]-acetic acid] | > 1000
18 | Cc1[nH]c2ccc(Cl)cc2c1Sc1cccc(CC(=O)O)c1 [Compound 3-3, [3-(5-Chloro-2-methyl-1H-indol-3-ylsulfanyl)-phenyl]-acetic acid] | > 1000
19 | Cc1[nH]c2c(Cl)cccc2c1Sc1cccc(CC(=O)O)c1 [Compound 3-4, [3-(7-Chloro-2-methyl-1H-indol-3-ylsulfanyl)-phenyl]-acetic acid] | > 1000
20 | Cc1[nH]c2cccc(F)c2c1Sc1cccc(CC(=O)O)c1 [Compound 3-5, [3-(4-Fluoro-2-methyl-1H-indol-3-ylsulfanyl)-phenyl]-acetic acid] | > 1000

Row | Structure (SMILES) | IC50 [nM]
21 | COc1cccc2[nH]c(C)c(Sc3cccc(CC(=O)O)c3)c12 [Compound 3-6, [3-(4-Methoxy-2-methyl-1H-indol-3-ylsulfanyl)-phenyl]-acetic acid] | > 1000
22 | O=C(O)c1cccc(Sc2c(C(F)(F)F)[nH]c3cc(Cl)ccc23)c1 [Compound 3-7, 3-(6-Chloro-2-trifluoromethyl-1H-indol-3-ylsulfanyl)-benzoic acid] | > 1000
23 | Cc1[nH]c2cccc(Cl)c2c1Sc1cccc(B(O)O)c1 [Compound 3-9, 3-(4-Chloro-2-methyl-1H-indol-3-ylsulfanyl)-phenylboronic acid] | > 1000
24 | Cc1c(Sc2ccccc2CC(=O)O)c2ccc(Cl)cc2n1C [Compound 3-10, [2-(6-Chloro-1,2-dimethyl-1H-indol-3-ylsulfanyl)-phenyl]-acetic acid] | > 1000
25 | Cc1c(Sc2ccc(CC(=O)O)cc2)c2ccc(Cl)cc2n1C [Compound 3-11, [4-(6-Chloro-1,2-dimethyl-1H-indol-3-ylsulfanyl)-phenyl]-acetic acid] | > 1000
26 | Cc1c(Sc2cccc(CC(=O)O)c2)c2cc(Cl)ccc2n1C [Compound 3-12, [3-(5-Chloro-1,2-dimethyl-1H-indol-3-ylsulfanyl)-phenyl]-acetic acid] | > 1000
27 | O=C(O)c1cccc(Sc2c(C(F)(F)F)n(Cc3ccccc3)c3cc(Cl)ccc23)c1 [Compound 3-13, 3-(1-Benzyl-6-chloro-2-trifluoromethyl-1H-indol-3-ylsulfanyl)-benzoic acid] | > 1000
28 | CCc1c(Sc2cccc(C(=O)O)c2)c2ccc(Cl)cc2n1Cc1ccccc1 [Compound 3-15, 3-(1-Benzyl-6-chloro-2-ethyl-1H-indol-3-ylsulfanyl)-benzoic acid] | > 1000
29 | CCn1cc(-n2c(C)c(Sc3cccc(C(=O)O)c3)c3ccc(Cl)c(F)c32)cn1 [Compound 3-16, 3-[6-Chloro-1-(1-ethyl-1H-pyrazol-4-yl)-7-fluoro-2-methyl-1H-indol-3-ylsulfanyl]-benzoic acid] | < 300
30 | O=C(O)c1cccc(Sc2cn(Cc3ccccc3)c3cc(Cl)ccc23)c1 [Compound 3-17, 3-(1-Benzyl-6-chloro-1H-indol-3-ylsulfanyl)-benzoic acid] | 300 to 1000
31 | O=C(O)c1cccc(Sc2cn(-c3cccnc3)c3cc(Cl)ccc23)c1 [Compound 3-19, 3-(6-Chloro-1-pyridin-3-yl-1H-indol-3-ylsulfanyl)-benzoic acid] | 300 to 1000
32 | Cc1c(Sc2cccc(C(C)C(=O)O)c2)c2ccc(Cl)cc2n1-c1cccnc1 (stereo not shown) [Compound 3-20, 2-[3-(6-Chloro-2-methyl-1-pyridin-3-yl-1H-indol-3-ylsulfanyl)-phenyl]-propionic acid] | < 300
33 | CCn1cc(-n2c(C)c(Sc3cccc(C(=O)O)c3)c3ccc(Cl)c(C)c32)cn1 [Compound 3-21, 3-[6-Chloro-1-(1-ethyl-1H-pyrazol-4-yl)-2,7-dimethyl-1H-indol-3-ylsulfanyl]-benzoic acid] | < 300
34 | Cc1cncc(-n2c(C)c(Sc3cccc(C(=O)O)c3)c3ccc(Cl)c(F)c32)c1 [Compound 3-22, 3-[6-Chloro-7-fluoro-2-methyl-1-(5-methyl-pyridin-3-yl)-1H-indol-3-ylsulfanyl]-benzoic acid] | < 300
35 | Cc1c(Sc2cccc(C(=O)O)c2)c2ccc(Cl)c(F)c2n1-c1cnn(-c2ccccc2)c1 [Compound 3-23, 3-[6-Chloro-7-fluoro-2-methyl-1-(1-phenyl-1H-pyrazol-4-yl)-1H-indol-3-ylsulfanyl]-benzoic acid] | < 300
36 | CCCn1cc(-n2c(C)c(Sc3cccc(C(=O)O)c3)c3ccc(Cl)c(F)c32)cn1 [Compound 3-24, 3-[6-Chloro-7-fluoro-2-methyl-1-(1-propyl-1H-pyrazol-4-yl)-1H-indol-3-ylsulfanyl]-benzoic acid] | < 300
37 | CCc1cncc(-n2c(C)c(Sc3cccc(C(=O)O)c3)c3ccc(Cl)c(F)c32)c1 [Compound 3-25, 3-[6-Chloro-1-(5-ethyl-pyridin-3-yl)-7-fluoro-2-methyl-1H-indol-3-ylsulfanyl]-benzoic acid] | < 300
38 | CCn1cc(-n2c(C)c(Sc3cccc(C(=O)O)c3)c3cc(F)c(Cl)cc32)cn1 [Compound 3-26, 3-[6-Chloro-1-(1-ethyl-1H-pyrazol-4-yl)-5-fluoro-2-methyl-1H-indol-3-ylsulfanyl]-benzoic acid] | < 300
39 | CCCn1cc(-n2c(C)c(Sc3cccc(C(=O)O)c3)c3cc(F)c(Cl)cc32)cn1 [Compound 3-27, 3-[6-Chloro-5-fluoro-2-methyl-1-(1-propyl-1H-pyrazol-4-yl)-1H-indol-3-ylsulfanyl]-benzoic acid] | < 300
40 | CCn1cc(-n2c(C)c(Sc3cccc(CC(=O)O)c3)c3ccc(Cl)c(F)c32)cn1 [Compound 3-28, {3-[6-Chloro-1-(1-ethyl-1H-pyrazol-4-yl)-7-fluoro-2-methyl-1H-indol-3-ylsulfanyl]-phenyl}-acetic acid] | < 300
